Reference: patent US11331327B2, “Antibacterial use of halogenated salicylanilides” (UNION therapeutics A/S, priority 2014, dated 2022)
Converted amounts (≈) assume the structure as drawn. Where two headings read alike, the source gives them in different places.

Test system: S. aureus clinical isolates and S. aureus ATCC 29213
Test: MIC assay according to CLSI criteria, Example 2, S. aureus strains
Type: cell-based, Staphylococcus aureus
Details: Staphylococcus aureus, read-out: MIC
Description: Strains were conserved in Luria Bertani (LB) Broth (S. aureus) or Brain Heart Infusion (BHI) (S. pyogenes) supplemented with glycerol 15% (v/v) at −80° C., and reactivated by isolation on LB (S. aureus) or BHI (S. pyogenes) agar plates. Strains were cultivated in Mueller Hinton (MH) Broth-cation adjusted (S. aureus) or BHI (S. pyogenes). All strains were cultivated aerobically (microaerobically for S. pyogenes strains) at 37° C.
Bacterial cultures were stopped in their exponential growth phase and plates were inoculated with the approximate concentration of 5×10^5 cells per well. Plates were incubated at 37° C. for 18 hours (S. aureus) or 24 hours (S. pyogenes).

Q: Which results are given for `CC(=O)O[C@H]1C[C@@]2(C)[C@@H](C[C@@H](O)[C@H]3[C@@]4(C)CC[C@@H](O)[C@@H](C)[C@@H]4CC[C@@]32C)/C1=C(\CCC=C(C)C)C(=O)O` [Fusidic acid]?
A: MIC (ATCC29213, strain 9-1862936): 0.125 µg/mL (≈ 0.242 µM); MIC (ATCC29213, strain 9-2625962): 0.25 µg/mL (≈ 0.484 µM); MIC (ATCC29213, strain 9-2642158): 0.25 µg/mL (≈ 0.484 µM); MIC (ATCC29213, strain 9-2955245): 0.25 µg/mL (≈ 0.484 µM); MIC (ATCC29213, strain 9-26422166): 8 µg/mL (≈ 15.5 µM); MIC (ATCC29213, strain 000040C): 0.25 µg/mL (≈ 0.484 µM); MIC (ATCC29213, strain 000041C): 0.25 µg/mL (≈ 0.484 µM); MIC (ATCC29213, strain 000274T): 0.5 µg/mL (≈ 0.968 µM); MIC (ATCC29213, strain 114660U): 0.25 µg/mL (≈ 0.484 µM); MIC (ATCC29213, strain 115015T): 0.25 µg/mL (≈ 0.484 µM); MIC (ATCC29213, strain 115242C): 8 µg/mL (≈ 15.5 µM); MIC (ATCC29213, strain 115263C): 0.125 µg/mL (≈ 0.242 µM); MIC (ATCC29213, strain 115268C): 0.25 µg/mL (≈ 0.484 µM); MIC (ATCC29213, strain 115273C): 0.25 µg/mL (≈ 0.484 µM); MIC (ATCC29213, strain 115295C): 0.125 µg/mL (≈ 0.242 µM); MIC (ATCC29213, strain 115303C): 0.25 µg/mL (≈ 0.484 µM); MIC (ATCC29213, strain 115370U): 0.5 µg/mL (≈ 0.968 µM); MIC (ATCC29213, strain 115427C): 0.125 µg/mL (≈ 0.242 µM); MIC (ATCC29213, strain 115445C): 0.25 µg/mL (≈ 0.484 µM); MIC (ATCC29213, strain 115561C): 0.125 µg/mL (≈ 0.242 µM); MIC (ATCC29213, strain 115584D): 0.25 µg/mL (≈ 0.484 µM); MIC (ATCC29213, strain 115628T): 8 µg/mL (≈ 15.5 µM); MIC (ATCC29213, strain 115690C): 8 µg/mL (≈ 15.5 µM); MIC (ATCC29213, strain 115691T): 0.25 µg/mL (≈ 0.484 µM); MIC (ATCC29213, strain 115740E): 0.25 µg/mL (≈ 0.484 µM); MIC (ATCC29213, strain 115810E): 0.25 µg/mL (≈ 0.484 µM); MIC (ATCC29213, strain 115903T): 8 µg/mL (≈ 15.5 µM); MIC (ATCC29213, strain 116122T): 0.125 µg/mL (≈ 0.242 µM); MIC (ATCC29213, strain ATCC 29213): 0.06 µg/mL (≈ 0.116 µM); MIC (ATCC29213, strain E5-1029252): 0.25 µg/mL (≈ 0.484 µM); MIC (ATCC29213, strain E5-1029558): 16 µg/mL (≈ 31 µM); MIC (ATCC29213, strain E5-1030440): 0.25 µg/mL (≈ 0.484 µM); MIC (ATCC29213, strain E5-1030469): 0.125 µg/mL (≈ 0.242 µM); MIC (ATCC29213, strain E5-1030472): 0.25 µg/mL (≈ 0.484 µM); MIC (ATCC29213, strain E5-1030482): 16 µg/mL (≈ 31 µM); MIC (ATCC29213, strain E5-1033076 (first line, r202)): 0.25 µg/mL (≈ 0.484 µM); MIC (ATCC29213, strain E5-1033076 (second line, r203)): 0.25 µg/mL (≈ 0.484 µM); MIC (ATCC29213, strain E5-1033088): 0.25 µg/mL (≈ 0.484 µM); MIC (ATCC29213, strain E5-1033091): 0.03 µg/mL (≈ 0.0581 µM); MIC (ATCC29213, strain E5-1035277): 16 µg/mL (≈ 31 µM); MIC (ATCC29213, strain E5-1035284): 0.25 µg/mL (≈ 0.484 µM); MIC (ATCC29213, strain E5-1035775): > 16 µg/mL; MIC (ATCC29213, strain E5-1035779): 0.125 µg/mL (≈ 0.242 µM); MIC (ATCC29213, strain E5-1037958): 16 µg/mL (≈ 31 µM); MIC (ATCC29213, strain E5-1037971): 0.25 µg/mL (≈ 0.484 µM); MIC (ATCC29213, strain E5-1038279): 4 µg/mL (≈ 7.74 µM); MIC (ATCC29213, strain E5-1038286): 0.25 µg/mL (≈ 0.484 µM); MIC (ATCC29213, strain E5-1038294): 0.25 µg/mL (≈ 0.484 µM); MIC (ATCC29213, strain E5-1039684): 16 µg/mL (≈ 31 µM); MIC (ATCC29213, strain E5-1039697): 0.5 µg/mL (≈ 0.968 µM); MIC (ATCC29213, strain E5-1041977): 16 µg/mL (≈ 31 µM); MIC (ATCC29213, strain E5-1041979): 0.25 µg/mL (≈ 0.484 µM); MIC (ATCC29213, strain E5-1041980): 0.25 µg/mL (≈ 0.484 µM); MIC (ATCC29213, strain E5-1041987): 16 µg/mL (≈ 31 µM); MIC (ATCC29213, strain E5-1043184): 16 µg/mL (≈ 31 µM); MIC (ATCC29213, strain E5-1043668): 1 µg/mL (≈ 1.94 µM); MIC (ATCC29213, strain E5-1045179): 0.25 µg/mL (≈ 0.484 µM); MIC (ATCC29213, strain E5-1046019): 0.25 µg/mL (≈ 0.484 µM); MIC (ATCC29213, strain E5-1046020): 0.25 µg/mL (≈ 0.484 µM); MIC (ATCC29213, strain E5-1046039): 0.25 µg/mL (≈ 0.484 µM); MIC (ATCC29213, strain E5-1046070): 0.25 µg/mL (≈ 0.484 µM); MIC (ATCC29213, strain E5-1046074): 0.125 µg/mL (≈ 0.242 µM); MIC (ATCC29213, strain E5-1046085): 8 µg/mL (≈ 15.5 µM); MIC (ATCC29213, strain E5-1046096): 0.5 µg/mL (≈ 0.968 µM); MIC (ATCC29213, strain E5-1046296): 0.125 µg/mL (≈ 0.242 µM); MIC (ATCC29213, strain E5-1046297): 0.125 µg/mL (≈ 0.242 µM); MIC (ATCC29213, strain E5-1046298): 0.125 µg/mL (≈ 0.242 µM); MIC (ATCC29213, strain E5-1046723): 0.5 µg/mL (≈ 0.968 µM); MIC (ATCC29213, strain E5-1047585): 0.25 µg/mL (≈ 0.484 µM); MIC (ATCC29213, strain E5-1047606): 8 µg/mL (≈ 15.5 µM); MIC (ATCC29213, strain E5-1047924): 0.25 µg/mL (≈ 0.484 µM); MIC (ATCC29213, strain E5-1048204): 0.25 µg/mL (≈ 0.484 µM); MIC (ATCC29213, strain E5-1048428): 0.5 µg/mL (≈ 0.968 µM); MIC (ATCC29213, strain E5-1048654): 0.5 µg/mL (≈ 0.968 µM); MIC (ATCC29213, strain E5-1048670): 0.5 µg/mL (≈ 0.968 µM); MIC (ATCC29213, strain EEFIC 01): 4 µg/mL (≈ 7.74 µM); MIC (ATCC29213, strain EEFIC 02): 4 µg/mL (≈ 7.74 µM); MIC (ATCC29213, strain K000772): > 16 µg/mL; MIC (ATCC29213, strain K000796): 8 µg/mL (≈ 15.5 µM); MIC (ATCC29213, strain K000863): 1 µg/mL (≈ 1.94 µM); MIC (ATCC29213, strain K000864): 0.25 µg/mL (≈ 0.484 µM); MIC (ATCC29213, strain K000866): 8 µg/mL (≈ 15.5 µM); MIC (ATCC29213, strain K115498): 0.125 µg/mL (≈ 0.242 µM); MIC (ATCC29213, strain K115688): 0.125 µg/mL (≈ 0.242 µM); MIC (ATCC29213, strain K115689): 0.125 µg/mL (≈ 0.242 µM); MIC (ATCC29213, strain R000019): 0.125 µg/mL (≈ 0.242 µM); MIC (ATCC29213, strain R000020): 0.125 µg/mL (≈ 0.242 µM); MIC (ATCC29213, strain R000024): 16 µg/mL (≈ 31 µM); MIC (ATCC29213, strain U115579): 0.25 µg/mL (≈ 0.484 µM); MIC (ATCC 29213 / MRSA, strain MRSA 01): 0.125 µg/mL (≈ 0.242 µM); MIC (ATCC 29213 / MRSA, strain MRSA 02): 0.5 µg/mL (≈ 0.968 µM); MIC (ATCC 29213 / MRSA, strain MRSA 03): 16 µg/mL (≈ 31 µM); MIC (ATCC 29213 / MRSA, strain MRSA 04): 0.25 µg/mL (≈ 0.484 µM); MIC (ATCC 29213 / MRSA, strain MRSA 05): 0.125 µg/mL (≈ 0.242 µM); MIC (ATCC 29213 / MRSA, strain MRSA 06): 0.125 µg/mL (≈ 0.242 µM); MIC (ATCC 29213 / MRSA, strain MRSA 07): 0.25 µg/mL (≈ 0.484 µM); MIC (ATCC 29213 / MRSA, strain MRSA 08): 0.125 µg/mL (≈ 0.242 µM); MIC (ATCC 29213 / MRSA, strain MRSA 09): 0.25 µg/mL (≈ 0.484 µM); MIC (ATCC 29213 / MRSA, strain MRSA 10): 1 µg/mL (≈ 1.94 µM); MIC (ATCC 29213 / MRSA, strain MRSA 11): 1 µg/mL (≈ 1.94 µM); MIC (ATCC 29213 / MRSA, strain MRSA 12): 4 µg/mL (≈ 7.74 µM); MIC (ATCC 29213 / MRSA, strain MRSA 13): 4 µg/mL (≈ 7.74 µM); MIC (ATCC 29213 / MRSA, strain MRSA 14): > 16 µg/mL
